Experimental data: BindingDB's records for doi:10.1016/j.chembiol.2008.10.017 (University of Toronto, 2008)
pIC50, pKi: −log10 of the molar value.

Molecular target: T1, Putative farnesyl pyrophosphate synthase (Cryptosporidium parvum (strain Iowa II), UniProt Q5CR09)
T1 sequence (Q5CR09 whole entry): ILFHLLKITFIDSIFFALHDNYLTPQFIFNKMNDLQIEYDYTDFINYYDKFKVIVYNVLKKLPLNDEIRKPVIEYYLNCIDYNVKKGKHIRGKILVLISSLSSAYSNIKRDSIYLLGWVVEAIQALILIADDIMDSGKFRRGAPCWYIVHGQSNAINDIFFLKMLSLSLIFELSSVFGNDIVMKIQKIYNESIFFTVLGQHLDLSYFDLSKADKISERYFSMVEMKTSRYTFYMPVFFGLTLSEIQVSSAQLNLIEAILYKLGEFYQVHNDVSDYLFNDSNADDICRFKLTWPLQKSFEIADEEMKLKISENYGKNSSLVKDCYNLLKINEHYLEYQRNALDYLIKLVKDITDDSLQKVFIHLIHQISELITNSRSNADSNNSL
Experiment: Enzymatic Assay
Settings: pH 7.7; 37 °C
Procedure: Enzymatic assay using CpNPPPS was assayed using Reed and Rilling method with some modification.

pIC50 | pKi | SMILES
7.52 | 10.30 | O=P(O)(O)C(O)(Cn1ccnc1)P(=O)(O)O
7.34 | 9.42 | O=P(O)(O)C(O)(Cc1cccnc1)P(=O)(O)O [JMC515594 Compound 64]
